# From patent US9896445B2, “Heterocyclic inhibitors of ERK1 and ERK2 and their use in the treatment of cancer” (Asana Biosciences, LLC, priority 2015, dated 2018)
# Assays:
# ERK2 = molecular target: T1, ERK2 (Homo sapiens, UniProt P28482); assay: ERK2 HTRF (biochemical) assay
# T1 construct: purchased Jubilant Biosys
# Outline: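 Readout was time-resolved FRET between europium anti-phospho-MBP and streptavidin-APC after a 60-min room-temperature kinase step. That step used ERK2 (25 nM in enzyme mix), biotinylated MBP peptide (1 uM) and ATP (24 uM) from the substrate mix, in pH 7.5 Tris buffer.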
# ERK1 = molecular target: T2, ERK1 (Homo sapiens, UniProt P27361); assay: ERK1 HTRF (biochemical) assay
# T2 construct: purchased Jubilant Biosys
# Description: ERK1 and ERK2 HTRF (Biochemical) Assays
# These assays employed a homogeneous time resolved fluorescence (HTRF) technique. […] The plate was incubated at room temperature for 60 min with shaking. […] The IC50 values (half maximal inhibitory concentration values) were subsequently determined using a sigmoidal dose-response curve (variable slope) in GraphPad Prism® 5 software.
# T1 sequence (P28482 whole entry): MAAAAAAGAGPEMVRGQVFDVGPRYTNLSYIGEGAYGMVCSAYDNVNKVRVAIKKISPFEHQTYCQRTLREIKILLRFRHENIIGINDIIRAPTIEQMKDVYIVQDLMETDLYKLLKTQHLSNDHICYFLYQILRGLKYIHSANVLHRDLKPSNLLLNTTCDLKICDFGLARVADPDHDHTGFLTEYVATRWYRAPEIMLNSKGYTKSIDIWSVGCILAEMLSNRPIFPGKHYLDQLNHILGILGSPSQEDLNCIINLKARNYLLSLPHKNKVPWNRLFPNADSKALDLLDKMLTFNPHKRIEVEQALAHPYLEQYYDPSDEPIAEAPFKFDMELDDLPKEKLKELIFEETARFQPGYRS
# T2 sequence (P27361 whole entry): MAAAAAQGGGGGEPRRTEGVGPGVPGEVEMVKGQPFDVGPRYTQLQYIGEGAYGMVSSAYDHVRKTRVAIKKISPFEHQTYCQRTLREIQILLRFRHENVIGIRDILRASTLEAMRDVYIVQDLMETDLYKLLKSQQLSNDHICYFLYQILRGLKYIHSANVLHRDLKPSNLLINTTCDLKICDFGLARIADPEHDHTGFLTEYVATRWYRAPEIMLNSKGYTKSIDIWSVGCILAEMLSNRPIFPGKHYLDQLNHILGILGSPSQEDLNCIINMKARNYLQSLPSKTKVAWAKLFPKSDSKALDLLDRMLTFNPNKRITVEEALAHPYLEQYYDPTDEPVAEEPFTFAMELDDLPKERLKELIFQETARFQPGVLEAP
SMILES,IC50 (ERK2; HTRF),IC50 (ERK1; HTRF),IC50 (ERK2; HTRF biochemical assay),IC50 (ERK1; HTRF biochemical assay)
"Cc1cnc(Nc2ccc3occc3c2)cc1-n1ccc(C(=O)NC(CO)c2ccccc2)c1 (stereo not drawn) [Compound 79, 1-(2-(benzofuran-5-ylamino)-5-methylpyridin-4-yl)-N-(2-hydroxy-1-phenylethyl)-1H-pyrrole-3-carboxamide]",≤ 50 nM,100 to 500 nM,–,–
"NCC(NC(=O)c1cn(-c2ccnc(Nc3ccc(F)cc3)c2)cn1)c1ccccc1 (stereo not drawn) [Compound 221, N-(2-amino-1-phenylethyl)-1-(2-((4-fluorophenyl)-amino)pyridin-4-yl)-1H-imidazole-4-carboxamide]",≤ 50 nM,< 50 nM,–,–
"Cc1cnc(Nc2cccnc2)nc1-n1cc(NC(=O)N[C@H](CO)c2cccc(Cl)c2)cn1 [Compound 23, (S)-1-(1-(3-chlorophenyl)-2-hydroxyethyl)-3-(1-(5-methyl-2-(pyridin-3-yl-amino)pyrimidin-4-yl)-1H-pyrazol-4-yl)urea]",≤ 50 nM,< 50 nM,–,–
"O=C(Nc1cnn(-c2ccnc(Nc3ccc4c(c3)OCO4)n2)c1)N[C@H](CO)c1cccc(Cl)c1 [Compound 21, (S)-1-(1-(2-(benzo[d][1,3]dioxol-5-ylamino)-pyrimidin-4-yl)-1H-pyrazol-4-yl)-3-(1-(3-chlorophenyl)-2-hydroxyethyl)urea]",≤ 50 nM,< 50 nM,–,–
"Cc1cnc(NC2CCOCC2)nc1-n1cnc(C(=O)NC(C(N)=O)c2cccc(Cl)c2)c1 (stereo not drawn) [Example 312, N-(2-amino-1-(3-chlorophenyl)-2-oxoethyl)-1-(5-methyl-2-((tetrahydro-2H-pyran-4-yl)amino)-pyrimidin-4-yl)-1H-imidazole-4-carboxamide]",–,–,≤ 50 nM,< 50 nM
"CC[C@@H](CO)Nc1ncc(C)c(-n2ccc(C(=O)NC(CO)c3cccc(Cl)c3)c2)n1 (stereo partly drawn) [Compound 146, N-(1-(3-chloro-phenyl)-2-hydroxy-ethyl)-1-(2-(((S)-1-hydroxybutan-2-yl)amino)-5-methylpyrimidin-4-yl)-1H-pyrrole-3-carboxamide]",≤ 50 nM,< 50 nM,–,–
"Cc1cnc(Nc2cc3c(cc2Cl)OCO3)nc1-n1ccc(C(=O)NC(CO)c2cccc(Cl)c2)c1 (stereo not drawn) [Compound 101, 1-(2-((6-chloro-benzo[d][1,3]dioxol-5-yl)amino)-5-methylpyrimidin-4-yl)-N-(1-(3-chlorophenyl)-2-hydroxyethyl)-1H-pyrrole-3-carboxamide]",≤ 50 nM,< 50 nM,–,–
"Cc1cnc(Nc2ccc(F)cc2)nc1-n1cnc(C(=O)NC(CO)c2ccccc2)c1 (stereo not drawn) [Compound 118, 1-(2-((4-fluoro-phenyl)amino)-5-methylpyrimidin-4-yl)-N-(2-hydroxy-1-phenylethyl)-1H-imidazole-4-carboxamide]",≤ 50 nM,50 to 100 nM,–,–
"Cc1cnc(Nc2ccc(F)cc2)nc1-n1ccc(C(=O)NC(CO)c2cccc(Cl)c2)c1 (stereo not drawn) [Compound 113, N-(1-(3-chloro-phenyl)-2-hydroxy-ethyl)-1-(2-((4-fluorophenyl)amino)-5-methyl-pyrimidin-4-yl)-1H-pyrrole-3-carboxamide]",≤ 50 nM,50 to 100 nM,–,–
"Cc1cnc(Nc2ccc3[nH]ncc3c2)nc1-n1ccc(C(=O)NC(CO)c2ccccc2)c1 (stereo not drawn) [Compound 140, 1-(2-((1H-indazol-5-yl)amino)-5-methylpyrimidin-4-yl)-N-(2-hydroxy-1-phenylethyl)-1H-pyrrole-3-carboxamide]",≤ 50 nM,< 50 nM,–,–
"Cc1cn(-c2ccnc(Nc3ccc(F)cc3)n2)cc1C(=O)NC(CO)c1cccc(Cl)c1 (stereo not drawn) [Compound 110, N-(1-(3-chloro-phenyl)-2-hydroxyethyl)-1-(2-((4-fluorophenyl)-amino)pyrimidin-4-yl)-4-methyl-1H-pyrrole-3-carboxamide]",≤ 50 nM,50 to 100 nM,–,–
"Cc1cnc(NC2CCOCC2)nc1-n1cnc(C(=O)NC(c2cccc(Cl)c2)C(C)O)c1 (single isomer, unassigned) [Compound 252, N-(1-(3-chlorophenyl)-2-hydroxypropyl)-1-(5-methyl-2-((tetrahydro-2H-pyran-4-yl)amino)-pyrimidin-4-yl)-1H-imidazole-4-carboxamide]",≤ 50 nM,< 50 nM,–,–
"Cc1cnc(NC2CCOCC2)nc1-n1cnc(C(=O)NCc2sccc2CO)c1 [Example 284, N-((3-(hydroxy-methyl)thiophen-2-yl)methyl)-1-(5-methyl-2-((tetrahydro-2H-pyran-4-yl)amino)-pyrimidin-4-yl)-1H-imidazole-4-carboxamide]",≤ 50 nM,< 50 nM,–,–
"Cc1cnc(Nc2ccc(N3CCC(N4CCNCC4)CC3)cc2)nc1-n1ccc(C(=O)NC(CO)c2ccccc2)c1 (stereo not drawn) [Compound 178, N-(2-hydroxy-1-phenylethyl)-1-(5-methyl-2-((4-(4-(piperazin-1-yl)-piperidin-1-yl)-phenyl)amino)pyrimidin-4-yl)-1H-pyrrole-3-carboxamide]",100 to 500 nM,100 to 500 nM,–,–
"Cc1cnc(Nc2ccc(F)c(C(=O)N3CCN(C)CC3)c2)nc1-n1ccc(C(=O)NC(CO)c2cccc(Cl)c2)c1 (stereo not drawn) [Compound 179, N-(1-(3-chlorophenyl)-2-hydroxyethyl)-1-(2-((4-fluoro-3-(4-methylpiperazine-1-carbonyl)phenyl)amino)-5-methyl-pyrimidin-4-yl)-1H-pyrrole-3-carboxamide]",≤ 50 nM,< 50 nM,–,–
"Cc1cnc(NC2CCOCC2)nc1-n1cnc(C(=O)NC(CO)c2cccs2)c1 (stereo not drawn) [Compound 233, N-(2-hydroxy-1-(thiophen-2-yl)ethyl)-1-(5-methyl-2-((tetrahydro-2H-pyran-4-yl)amino)-pyrimidin-4-yl)-1H-imidazole-4-carboxamide]",≤ 50 nM,< 50 nM,–,–
"Cc1cnc(Nc2ccc3c(c2)OC(F)(F)O3)nc1-n1ccc(C(=O)N[C@H](CO)c2ccc(F)c(Cl)c2)c1 [Compound 69, (S)-N-(1-(3-chloro-4-fluorophenyl)-2-hydroxyethyl)-1-(2-((2,2-difluoro-benzo[d][1,3]dioxol-5-yl)amino)-5-methylpyrimidin-4-yl)-1H-pyrrole-3-carboxamide]",≤ 50 nM,< 50 nM,–,–
"Cc1cnc(Nc2ccc3c(c2)OCO3)nc1-n1cc(NC(=O)N[C@@H](CO)c2cccc(Cl)c2)cn1 [Compound 51, (R)-1-(1-(2-(benzo[d][1,3]dioxol-5-ylamino)-5-methylpyrimidin-4-yl)-1H-pyrazol-4-yl)-3-(1-(3-chloro-phenyl)-2-hydroxy-ethyl)urea]",50 to 100 nM,100 to 500 nM,–,–
"Cc1cnc(NC2CCOCC2)nc1-n1cnc(C(=O)NC(c2cccc(Cl)c2)C(C)O)c1 (stereo not drawn) [Compound 253, N-(1-(3-chlorophenyl)-2-hydroxypropyl)-1-(5-methyl-2-((tetrahydro-2H-pyran-4-yl)amino)-pyrimidin-4-yl)-1H-imidazole-4-carboxamide]",≤ 50 nM,< 50 nM,–,–
"Cc1cnc(NC2CCOc3ccccc32)nc1-n1cnc(C(=O)N[C@H](CN)c2cccc(Cl)c2)c1 (stereo partly drawn) [Example 271, N-((S)-2-amino-1-(3-chlorophenyl)ethyl)-1-(2-(chroman-4-ylamino)-5-methylpyrimidin-4-yl)-1H-imidazole-4-carboxamide]",≤ 50 nM,< 50 nM,–,–
"O=C(N[C@H](CO)c1cccc(Cl)c1)c1ccn(-c2nc(NC3CCOCC3)ncc2F)c1 [Compound 229, (S)-N-(1-(3-chlorophenyl)-2-hydroxyethyl)-1-(5-fluoro-2-((tetrahydro-2H-pyran-4-yl)amino)-pyrimidin-4-yl)-1H-pyrrole-3-carboxamide]",≤ 50 nM,< 50 nM,–,–
